In US11802259B2, “Process of reducing malodors on fabrics” (The Procter & Gamble Company, priority 2019, dated 2023):

Experiment: Malodor Reduction Test Method (wash of body soil malodor test fabrics, SPME GC-MS of oxidation markers)
Conditions: antioxidant at 0.035 wt % in detergent
Description: The following method is used to test the malodor reduction benefits of a composition.
Fatty acids and malodor markers are added into 100 ml glass gar with Teflon-lined cap according to Table A and mixed well using a vortex.
Provided the specified amount of each material according to Table B into a 200 mL glass jar with Teflon lined cap. Artificial body soil (ABS) is commercially available by Accurate Product Development; 2028 Bohlke Blvd, Fairfield, Ohio 45014.
Sixteen malodor test fabrics per wash load are prepared by applying 300 μl of Body soil malodor composition described in Table B to de-sized 2×5 inch white polycotton 50/50 (PCW50/50) swatches. 48 grams of liquid detergent to be tested (see, e.g., Example 1, Table 1, below) is added to Duet 9200 washing appliance set to Normal cycle; 77° F. wash cycle followed by a 60° F. rinse cycle. […]
The malodor reduction using ABS/Squalene malodor sensors are quantitatively determined by Gas Chromatography Mass Spectroscopy using an Agilent gas chromatograph 7890B equipped with a mass selective detector (5977B), a Chemstation quantitation package and a Gerstel multi-purpose sampler equipped with a solid phase micro-extraction (SPME) probe. […] Based on the partition coefficients (K at 80 C) of each component, the total nMol/L liter of 6-Methyl-5-hepten-2-one (K=3353), Trans-2-heptenal (K=3434), and 3-methyl-2-Butenal (K=1119) are calculated. […]

Structure (SMILES): Cc1c(C)c2c(c(C)c1O)CCC(C)(C(=O)O)O2 (stereo not shown) [Antioxidant 7, 3,4-dihydro-6-hydroxy-2,5,7,8-tetramethyl-2H-1-Benzopyran-2-carboxylic acid]
- malodor reduction benefits (reduction in total oxidation markers): did not provide benefits
